Source: patent publication US6800473B1, “Human cathepsin L2 protein, gene encoding said protein and use thereof” (Daiichi Fine Chemical Co., Ltd., priority 1998, dated 2004)
Read-outs that look alike come from different tables or passages of the source. Where a SMILES comes first, the peptide text is derived from it. [ ]: non-standard residue; d: D form. The star is where a group is joined. Sta = CC(C)C[C@H](N)[C@@H](O)CC(=O)O; Isovaleryl = CC(C)CC(=O)*

Target: T1, recombinant cathepsin L2 (Homo sapiens, UniProt O60911)
T1 construct: extra Met before Leu114 (ATG of primer L2-1; own reading of the primer) (N); made in house; host or cells: E. coli BL21 (DE3)
Format: biochemical
Settings: FIG. 3(B)
Protocol: The enzyme activity of purified cathepsin L2 produced in E. coli was measured by using 20 μM Z-Phe-Arg-AMC or Z-Arg-Arg-AMC (Bachem) as the substrate and following the procedure described by Barrett and Kirschke (Barrett, A. J., et al., Methods Enzymol., 80: 535-561, 1981) with minor modifications. Assays were performed at 30° C. in 100 mM sodium acetate buffer (pH 4.5) containing 10 mM dithiothreitol (DTT) and 2 mM EDTA. Substrate hydrolysis was monitored in a Cytofluor 2350 fluorometer (Millipore) at excitation and emission wavelengths of 360 and 460 nm, respectively. For inhibition assays, the reaction mixture containing recombinant cathepsin L2 was preincubated with 20 μM E-64 (Sigma) at 30° C. for 15 min, and the remaining activity for recombinant cathepsin L2 was determined using the fluorogenic substrate Z-Phe-Arg-AMC as described herein previously. As a positive control of enzyme assays, recombinant cathepsin O produced in E. coli (Velasco, G., et al., J. Biol. Chem., 269: 27136-27142, 1994) was used.

[1] = inhibitors of metalloproteinases, serine-proteinases, aspartyl-proteinases, concentration not given

T1 sequence (O60911 114-334): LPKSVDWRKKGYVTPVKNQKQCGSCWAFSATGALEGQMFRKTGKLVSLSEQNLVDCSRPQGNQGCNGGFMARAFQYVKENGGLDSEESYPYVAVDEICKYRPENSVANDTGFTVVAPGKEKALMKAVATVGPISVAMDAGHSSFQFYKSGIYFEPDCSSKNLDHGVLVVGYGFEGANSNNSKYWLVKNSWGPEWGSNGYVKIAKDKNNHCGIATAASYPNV

proteolytic activity of cathepsin L2 against Z-Phe-Arg-AMC in the presence of inhibitor (preincubated with 20 μM E-64 at 30° C. for 15 min, 100 mM sodium acetate buffer pH 4.5, 10 mM DTT, 2 mM EDTA) | SMILES | proteolytic activity of cathepsin L2 against Z-Phe-Arg-AMC in the presence of inhibitor [1]
abolished | CC(C)C[C@H](NC(=O)[C@H]1O[C@@H]1C(=O)O)C(=O)NCCCCN=C(N)N (relative stereo) [Clone E-64, trans-epoxysuccinyl-L-leucylamido-(4-guanidino)butane] | 
 | CC(C)CC(=O)N[C@H](C(=O)N[C@H](C(=O)N[C@@H](CC(C)C)[C@@H](O)CC(=O)N[C@@H](C)C(=O)N[C@@H](CC(C)C)[C@@H](O)CC(=O)O)C(C)C)C(C)C [pepstatin A] (Isovaleryl-VV[Sta]A[Sta]-OH) | not abolished
 | O=S(=O)(F)Cc1ccccc1 [phenylmethylsulfonyl fluoride] | not abolished
